Source: patent US20180148418A1, “AMIDO-SUBSTITUTED CYCLOHEXANE DERIVATIVES” (Bayer Pharma Aktiengesellschaft, priority 2015, published 2018)

Tests used:
[1] = tested on: wildtype Wnt signaling cascade; test: HEK293 TOP assay (Super TopFlash luciferase reporter, Wnt-3a stimulated); assay type: cell-based; conditions: Homo sapiens, HEK293, 16 h, HEK293 TOP reporter cells, Wnt3a at EC50, 16 hours
Method in brief: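 HEK293 cells stably carrying Super TopFlash (TOP) run in parallel with FOP cells, 10000/well plated 24 h ahead, stimulated with recombinant human Wnt-3a. Compounds tested 50 μM to 15 nM in 3.16-fold steps in CAFTY buffer pH 7.4 with 2 mM Ca^2+ and 0.01% BSA; luciferase read-out.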

TNKS2 = target: T1, TNKS2 (Homo sapiens, UniProt Q9H2K2); test: TNKS2 Assay B (auto-parsylation, [3H]-NAD+ SPA); assay type: biochemical; conditions: 6 nM TNKS2, auto-parsylation, over night at room temperature
T1 construct: purchased BPS Bioscience, San Diego, USA 80572 (TNKS2 Histone Ribosylation Assay Kit)
T1 sequence (Q9H2K2 1-1166): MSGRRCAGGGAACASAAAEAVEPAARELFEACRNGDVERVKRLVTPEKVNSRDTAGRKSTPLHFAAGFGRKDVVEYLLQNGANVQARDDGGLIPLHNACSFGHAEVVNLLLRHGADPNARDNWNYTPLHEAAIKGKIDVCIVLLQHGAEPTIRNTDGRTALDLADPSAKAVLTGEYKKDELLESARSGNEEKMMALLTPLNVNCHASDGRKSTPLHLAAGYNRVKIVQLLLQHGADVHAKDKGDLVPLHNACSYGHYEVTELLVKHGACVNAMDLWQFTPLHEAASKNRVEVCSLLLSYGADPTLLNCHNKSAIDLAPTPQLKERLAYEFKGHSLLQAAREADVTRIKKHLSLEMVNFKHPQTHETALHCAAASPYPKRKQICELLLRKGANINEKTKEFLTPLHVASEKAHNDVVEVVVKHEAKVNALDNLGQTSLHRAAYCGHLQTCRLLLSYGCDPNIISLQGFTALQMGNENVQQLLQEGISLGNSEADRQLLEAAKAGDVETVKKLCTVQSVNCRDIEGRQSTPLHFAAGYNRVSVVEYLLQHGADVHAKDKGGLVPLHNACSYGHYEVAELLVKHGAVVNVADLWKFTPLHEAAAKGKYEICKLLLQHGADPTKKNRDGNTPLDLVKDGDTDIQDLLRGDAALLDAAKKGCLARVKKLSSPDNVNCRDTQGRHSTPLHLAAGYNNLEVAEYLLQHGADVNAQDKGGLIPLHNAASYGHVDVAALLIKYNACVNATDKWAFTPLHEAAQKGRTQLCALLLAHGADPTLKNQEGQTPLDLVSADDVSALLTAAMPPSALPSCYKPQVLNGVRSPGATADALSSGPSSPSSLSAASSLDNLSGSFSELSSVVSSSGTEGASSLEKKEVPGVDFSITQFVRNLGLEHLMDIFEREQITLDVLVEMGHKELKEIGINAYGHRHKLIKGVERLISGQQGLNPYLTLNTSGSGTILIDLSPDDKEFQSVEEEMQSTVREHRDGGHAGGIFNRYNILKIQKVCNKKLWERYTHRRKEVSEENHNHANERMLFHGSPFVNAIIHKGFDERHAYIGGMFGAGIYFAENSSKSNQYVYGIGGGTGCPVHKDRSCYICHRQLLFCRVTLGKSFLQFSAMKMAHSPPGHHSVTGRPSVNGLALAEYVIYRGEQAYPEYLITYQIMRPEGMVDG

| IC50 [1] | IC50 (TNKS2) | Structure (SMILES) |
| --- | --- | --- |
| 0.12 µM | 0.037 µM | O=C(N[C@H]1CC[C@H](C(=O)Nc2ccc(F)cc2Cl)CC1)c1[nH]cnc1C(=O)N1CC2(COC2)C1 [Example 14, N-{trans-4-[(2-chloro-4-fluorophenyl)carbamoyl]cyclohexyl}-4-(2-oxa-6-azaspiro[3.3]hept-6-ylcarbonyl)-1H-imidazole-5-carboxamide] |
| 0.071 µM | 0.042 µM | CCNC(=O)c1nc[nH]c1C(=O)N[C@H]1CC[C@H](C(=O)Nc2ccc(F)cc2Cl)CC1 [Example 15, N^5-{trans-4-[(2-chloro-4-fluorophenyl)carbamoyl]cyclohexyl}-N^4-ethyl-1H-imidazole-4,5-dicarboxamide] |
| 1.4 µM | 1.2 µM | CN(C)C(=O)c1nc[nH]c1C(=O)N[C@H]1CC[C@H](C(=O)Nc2ccc(F)cc2Cl)CC1 [Example 16, N^5-{trans-4-[(2-chloro-4-fluorophenyl)carbamoyl]cyclohexyl}-N^4,N^4-dimethyl-1H-imidazole-4,5-dicarboxamide] |
| 0.049 µM | 0.09 µM | O=C(NC1CC1)c1nc[nH]c1C(=O)N[C@H]1CC[C@H](C(=O)Nc2ccc(F)cc2Cl)CC1 [Example 17, N^5-{trans-4-[(2-chloro-4-fluorophenyl)carbamoyl]cyclohexyl}-N^4-cyclopropyl-1H-imidazole-4,5-dicarboxamide] |
| 0.15 µM | 0.12 µM | O=C(NCCO)c1nc[nH]c1C(=O)N[C@H]1CC[C@H](C(=O)Nc2ccc(F)cc2Cl)CC1 [Example 18, N^5-{trans-4-[(2-chloro-4-fluorophenyl)carbamoyl]cyclohexyl}-N^4-(2-hydroxyethyl)-1H-imidazole-4,5-dicarboxamide] |
| 0.089 µM | 0.16 µM | COCCNC(=O)c1nc[nH]c1C(=O)N[C@H]1CC[C@H](C(=O)Nc2ccc(F)cc2Cl)CC1 [Example 19, N^5-{trans-4-[(2-chloro-4-fluorophenyl)carbamoyl]cyclohexyl}-N^4-(2-methoxyethyl)-1H-imidazole-4,5-dicarboxamide] |
| 0.22 µM | 0.13 µM | CC(C)NC(=O)c1nc[nH]c1C(=O)N[C@H]1CC[C@H](C(=O)Nc2ccc(F)cc2Cl)CC1 [Example 20, N^5-{trans-4-[(2-chloro-4-fluorophenyl)carbamoyl]cyclohexyl}-N^4-isopropyl-1H-imidazole-4,5-dicarboxamide] |
| 0.079 µM | 0.083 µM | O=C(NCC(F)(F)F)c1nc[nH]c1C(=O)N[C@H]1CC[C@H](C(=O)Nc2ccc(F)cc2Cl)CC1 [Example 21, N^5-{trans-4-[(2-chloro-4-fluorophenyl)carbamoyl]cyclohexyl}-N^4-(2,2,2-trifluoroethyl)-1H-imidazole-4,5-dicarboxamide] |
| 0.19 µM | 0.18 µM | CNC(=O)c1nc[nH]c1C(=O)N[C@H]1CC[C@H](C(=O)N(C)c2ccc(F)cc2Cl)CC1 [Example 173, N^5-{trans-4-[(2-chloro-4-fluorophenyl)(methyl)carbamoyl]cyclohexyl}-N^4-methyl-1H-imidazole-4,5-dicarboxamide] |

Continued, compound first:

| Structure (SMILES) | IC50 [1] | IC50 (TNKS2) |
| --- | --- | --- |
| O=C(NC1CCC2(CC1)CCN(c1cc(F)c(F)cc1Cl)C2=O)c1cnn2cccnc12 (single isomer, unassigned; isomer 1) [Example 168, N-[2-(2-chloro-4,5-difluorophenyl)-1-oxo-2-azaspiro[4.5]dec-8-yl]pyrazolo[1,5-a]pyrimidine-3-carboxamide (isomer 1)] | 0.00023 µM | 0.0031 µM |
| CNC(=O)c1nc[nH]c1C(=O)N[C@H]1CC[C@H](C(=O)Nc2cccnc2Cl)CC1 [Example 10, N^5-{trans-4-[(2-chloropyridin-3-yl)carbamoyl]cyclohexyl}-N^4-methyl-1H-imidazole-4,5-dicarboxamide] | 0.09 µM | 0.24 µM |
| CNC(=O)c1nc[nH]c1C(=O)N[C@H]1CC[C@H](C(=O)Nc2ccncc2Cl)CC1 [Example 11, N^5-{trans-4-[(3-chloropyridin-4-yl)carbamoyl]cyclohexyl}-N^4-methyl-1H-imidazole-4,5-dicarboxamide] | 0.14 µM | 0.21 µM |
| CC1CCN(CCNC(=O)c2nc[nH]c2C(=O)N[C@H]2CC[C@H](C(=O)Nc3ccc(F)cc3Cl)CC2)CC1 [Example 12, N^5-{trans-4-[(2-chloro-4-fluorophenyl)carbamoyl]cyclohexyl}-N^4-[2-(4-methylpiperidin-1-yl)ethyl]-1H-imidazole-4,5-dicarboxamide] | 0.072 µM | 0.0072 µM |
| O=C(NCCN1CCOCC1)c1nc[nH]c1C(=O)N[C@H]1CC[C@H](C(=O)Nc2ccc(F)cc2Cl)CC1 [Example 13, N^5-{trans-4-[(2-chloro-4-fluorophenyl)carbamoyl]cyclohexyl}-N^4-[2-(morpholin-4-yl)ethyl]-1H-imidazole-4,5-dicarboxamide] | 0.095 µM | 0.019 µM |
| O=C(N[C@H]1CC[C@@]2(CCN(c3ccc(F)cc3Cl)C2=O)CC1)c1[nH]cnc1C(=O)N1CCN(CC(F)(F)F)CC1 [Example 167, N-[(trans)-2-(2-chloro-4-fluorophenyl)-1-oxo-2-azaspiro[4.5]dec-8-yl]-4-{[4-(2,2,2-trifluoroethyl)piperazin-1-yl]carbonyl}-1H-imidazole-5-carboxamide] | 0.13 µM | 0.27 µM |
| Cc1cc(C)n2ncc(C(=O)N[C@H]3CC[C@H](C(=O)Nc4cnccc4Cl)CC3)c2n1 [Example 169, N-{trans-4-[(4-chloropyridin-3-yl)carbamoyl]cyclohexyl}-5,7-dimethylpyrazolo[1,5-a]pyrimidine-3-carboxamide] | 0.033 µM | 0.014 µM |
| CNC(=O)c1nc[nH]c1C(=O)N[C@H]1CC[C@H](C(=O)Nc2cc(C(C)(C)O)ccc2Cl)CC1 [Example 170, N^5-(trans-4-{[2-chloro-5-(2-hydroxypropan-2-yl)phenyl]carbamoyl}cyclohexyl)-N^4-methyl-1H-imidazole-4,5-dicarboxamide] | 2 µM | 1.5 µM |
| CNC(=O)c1nc[nH]c1C(=O)N[C@H]1CC[C@H](C(=O)N(C)c2ccccc2)CC1 [Example 171, N^4-methyl-N^5-{trans-4-[methyl(phenyl)carbamoyl]cyclohexyl}-1H-imidazole-4,5-dicarboxamide] | 0.45 µM | 0.15 µM |
| CNC(=O)c1nc[nH]c1C(=O)N[C@H]1CC[C@H](C(=O)N(C)c2ccc(F)cc2)CC1 [Example 172, N^5-{trans-4-[(4-fluorophenyl)(methyl)carbamoyl]cyclohexyl}-N^4-methyl-1H-imidazole-4,5-dicarboxamide] | 0.41 µM | 0.51 µM |
| Cc1cc(N(C)C(=O)[C@H]2CC[C@H](NC(=O)c3cnn4cccnc34)CC2)c(Cl)cc1F [Example 176, N-{trans-4-[(2-chloro-4-fluoro-5-methylphenyl)(methyl)carbamoyl]cyclohexyl}pyrazolo[1,5-a]pyrimidine-3-carboxamide] | 0.35 µM | 0.13 µM |
| O=C(N[C@H]1CC[C@H](C(=O)N(CC2CC2)c2ccc(F)cc2Cl)CC1)c1cnn2cccnc12 [Example 177, N-{trans-4-[(2-chloro-4-fluorophenyl)(cyclopropylmethyl)carbamoyl]cyclohexyl}pyrazolo[1,5-a]pyrimidine-3-carboxamide] | 0.071 µM | 0.0092 µM |
